In publication PMC12559008 (Nature cancer, 2025):

Tests used:
[1] = MTD dose stated for CPT comparators; conditions: mouse, in vivo, intravenous
[2] = B6129SF1/J, mouse, in vivo, iv, 24 h
in vivo = conditions: B6129SF1/J, mouse, iv
[3] = mouse, in vivo
[4] = pKa measurement by pH titration; format: physicochemical; conditions: pH probe, titration of SM-AZO-PTX and SM-AZE-PTX

Molecule `CC[C@@]1(O)C(=O)OCc2c1cc1n(c2=O)Cc2cc3ccccc3nc2-1` [Free CPT, Camptothecin] has an MTD [1] of 5 mg/kg.
With `Nc1ccn([C@@H]2O[C@H](CO)[C@@H](O)C2(F)F)c(=O)n1` [GEM, gemcitabine] the “Injected GEM dose (%), Tumor” value [2] was 0.21% and the half-life (in vivo) was 23.4 ± 3.6 min.
In the case of Taxol, the “myelosuppression and neuropathy (sternums and dorsal root ganglia), in words” value [3] is reported as “severely damaged sternums and dorsal root ganglia tissues”.
Molecule `C1CCCNCCC1` [AZO, Azocane] has a pKa [4] of 5.75.
Molecule `C1CCCNCC1` [AZE, Azepane] has a pKa [4] of ~6.98.
